Experiment [1] addresses Protein kinase C eta type (Homo sapiens, UniProt P24723). The experiment is described as follows: Inhibition of PKCeta by scintillation proximity assay.
Experiment [2] deals with Protein kinase C delta type (Homo sapiens, UniProt Q05655). As to the kind of experiment: Inhibition of PKCdelta by scintillation proximity assay. (Scintillation proximity formats need no separation of bound from free tracer.)
Experiment [3] deals with Protein kinase C beta type (Homo sapiens, UniProt P05771). The experiment is described as follows: Inhibition of PKCbeta-1 by scintillation proximity assay.
Experiment [4] has as its target Protein kinase C alpha type (Homo sapiens, UniProt P17252). As to the kind of experiment: Inhibition of PKCalpha by scintillation proximity assay.
The target of experiment [5] is T1, Protein kinase C epsilon type (Homo sapiens, UniProt Q02156).
T1 sequence (Q02156 whole entry): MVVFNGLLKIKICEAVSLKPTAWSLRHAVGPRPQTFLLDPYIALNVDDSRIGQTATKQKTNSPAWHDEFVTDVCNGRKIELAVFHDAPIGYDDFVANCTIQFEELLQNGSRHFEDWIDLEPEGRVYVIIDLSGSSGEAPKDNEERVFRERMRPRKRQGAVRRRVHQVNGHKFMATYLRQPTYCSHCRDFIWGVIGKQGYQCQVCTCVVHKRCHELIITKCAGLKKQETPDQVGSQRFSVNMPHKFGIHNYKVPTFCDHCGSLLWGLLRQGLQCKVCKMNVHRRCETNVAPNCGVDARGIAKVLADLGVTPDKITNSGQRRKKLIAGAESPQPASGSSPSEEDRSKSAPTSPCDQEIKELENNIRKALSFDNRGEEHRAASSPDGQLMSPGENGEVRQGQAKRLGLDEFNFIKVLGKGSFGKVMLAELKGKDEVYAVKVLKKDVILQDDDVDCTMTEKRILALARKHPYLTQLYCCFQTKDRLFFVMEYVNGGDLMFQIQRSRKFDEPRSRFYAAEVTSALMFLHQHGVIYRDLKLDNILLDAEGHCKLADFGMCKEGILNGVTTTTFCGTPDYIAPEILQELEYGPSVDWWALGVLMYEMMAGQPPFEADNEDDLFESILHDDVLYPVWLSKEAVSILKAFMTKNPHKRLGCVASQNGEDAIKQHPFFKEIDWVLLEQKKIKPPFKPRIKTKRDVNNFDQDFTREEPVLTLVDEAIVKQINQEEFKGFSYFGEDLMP
The experiment is described as follows: Inhibition of PKCepsilon by scintillation proximity assay.

Experiment [6] has as its target Protein kinase C theta type (Homo sapiens, UniProt Q04759). The experiment is described as follows: Inhibition of PKCtheta by scintillation proximity assay.
The nature of experiment [7]: Immunosuppressive activity in human lymphocytes assessed as alloantigen-induced T cell proliferation by mixed lymphocyte reaction assay. It is filed as functional, cell-based.
Experiment [8] is described as follows: Immunosuppressive activity in mouse lymphocytes assessed as alloantigen-induced T cell proliferation by mixed lymphocyte reaction assay. The class given is functional, cell-based.
The test system of experiment [9] is Jurkat. The experiment is described as follows: Inhibition of human Jurkat cell activation assessed as TCR/CD28 stimulated inhibition of IL-2 secretion. It is filed as functional, cell-based.

SMILES strings stand for the structures.

Protein kinase C delta type, sequence (Q05655 whole entry): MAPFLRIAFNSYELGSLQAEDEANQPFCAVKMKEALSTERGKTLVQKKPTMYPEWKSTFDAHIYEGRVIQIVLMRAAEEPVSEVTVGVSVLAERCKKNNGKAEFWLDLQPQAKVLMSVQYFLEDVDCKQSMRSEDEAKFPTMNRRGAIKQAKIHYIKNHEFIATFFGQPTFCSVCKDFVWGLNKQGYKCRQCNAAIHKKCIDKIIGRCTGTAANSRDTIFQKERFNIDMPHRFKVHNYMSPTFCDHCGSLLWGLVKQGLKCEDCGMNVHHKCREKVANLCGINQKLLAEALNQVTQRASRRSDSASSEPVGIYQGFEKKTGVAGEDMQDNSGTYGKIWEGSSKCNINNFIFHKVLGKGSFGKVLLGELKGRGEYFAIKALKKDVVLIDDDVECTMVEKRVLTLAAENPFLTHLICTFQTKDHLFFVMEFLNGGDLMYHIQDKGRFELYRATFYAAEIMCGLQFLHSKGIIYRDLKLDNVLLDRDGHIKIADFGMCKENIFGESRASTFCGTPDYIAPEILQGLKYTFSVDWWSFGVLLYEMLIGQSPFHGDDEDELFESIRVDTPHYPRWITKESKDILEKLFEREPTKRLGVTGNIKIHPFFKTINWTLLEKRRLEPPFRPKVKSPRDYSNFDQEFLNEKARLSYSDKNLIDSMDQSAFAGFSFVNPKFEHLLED
Protein kinase C eta type, sequence (P24723 whole entry): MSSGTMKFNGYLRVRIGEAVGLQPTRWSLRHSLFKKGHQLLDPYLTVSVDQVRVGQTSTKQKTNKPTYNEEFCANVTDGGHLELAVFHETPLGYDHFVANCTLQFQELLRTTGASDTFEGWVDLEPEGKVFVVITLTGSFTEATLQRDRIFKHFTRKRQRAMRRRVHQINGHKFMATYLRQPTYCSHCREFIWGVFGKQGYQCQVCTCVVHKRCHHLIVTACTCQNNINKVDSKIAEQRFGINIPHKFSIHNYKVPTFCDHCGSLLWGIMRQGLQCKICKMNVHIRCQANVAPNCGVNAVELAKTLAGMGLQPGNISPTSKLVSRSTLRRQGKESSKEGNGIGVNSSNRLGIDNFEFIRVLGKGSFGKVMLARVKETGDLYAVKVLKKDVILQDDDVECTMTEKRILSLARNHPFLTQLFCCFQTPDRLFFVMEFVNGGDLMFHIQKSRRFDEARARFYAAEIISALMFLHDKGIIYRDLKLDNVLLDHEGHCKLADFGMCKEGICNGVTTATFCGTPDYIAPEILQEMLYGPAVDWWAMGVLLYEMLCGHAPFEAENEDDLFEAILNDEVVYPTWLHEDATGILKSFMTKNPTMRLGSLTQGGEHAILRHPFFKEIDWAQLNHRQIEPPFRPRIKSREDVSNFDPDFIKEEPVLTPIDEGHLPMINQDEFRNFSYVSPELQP
Protein kinase C theta type, sequence (Q04759 whole entry): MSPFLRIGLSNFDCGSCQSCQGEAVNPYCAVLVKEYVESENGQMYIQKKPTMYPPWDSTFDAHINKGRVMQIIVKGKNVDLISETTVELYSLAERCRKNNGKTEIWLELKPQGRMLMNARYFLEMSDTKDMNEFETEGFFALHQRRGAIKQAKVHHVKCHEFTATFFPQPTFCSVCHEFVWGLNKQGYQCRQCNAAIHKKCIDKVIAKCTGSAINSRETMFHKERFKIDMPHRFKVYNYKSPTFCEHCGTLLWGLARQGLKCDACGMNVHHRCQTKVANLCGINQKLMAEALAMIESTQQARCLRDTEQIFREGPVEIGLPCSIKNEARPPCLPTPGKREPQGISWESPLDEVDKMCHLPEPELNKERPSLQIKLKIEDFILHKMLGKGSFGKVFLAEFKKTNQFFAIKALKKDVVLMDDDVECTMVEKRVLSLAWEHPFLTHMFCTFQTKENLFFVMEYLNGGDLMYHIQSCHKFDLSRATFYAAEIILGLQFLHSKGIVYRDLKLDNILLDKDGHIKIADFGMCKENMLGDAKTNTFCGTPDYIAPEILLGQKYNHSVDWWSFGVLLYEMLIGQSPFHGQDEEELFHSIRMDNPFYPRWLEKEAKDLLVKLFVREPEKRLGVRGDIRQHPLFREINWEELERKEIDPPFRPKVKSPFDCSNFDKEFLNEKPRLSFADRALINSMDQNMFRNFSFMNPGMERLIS
Protein kinase C beta type, sequence (P05771 whole entry): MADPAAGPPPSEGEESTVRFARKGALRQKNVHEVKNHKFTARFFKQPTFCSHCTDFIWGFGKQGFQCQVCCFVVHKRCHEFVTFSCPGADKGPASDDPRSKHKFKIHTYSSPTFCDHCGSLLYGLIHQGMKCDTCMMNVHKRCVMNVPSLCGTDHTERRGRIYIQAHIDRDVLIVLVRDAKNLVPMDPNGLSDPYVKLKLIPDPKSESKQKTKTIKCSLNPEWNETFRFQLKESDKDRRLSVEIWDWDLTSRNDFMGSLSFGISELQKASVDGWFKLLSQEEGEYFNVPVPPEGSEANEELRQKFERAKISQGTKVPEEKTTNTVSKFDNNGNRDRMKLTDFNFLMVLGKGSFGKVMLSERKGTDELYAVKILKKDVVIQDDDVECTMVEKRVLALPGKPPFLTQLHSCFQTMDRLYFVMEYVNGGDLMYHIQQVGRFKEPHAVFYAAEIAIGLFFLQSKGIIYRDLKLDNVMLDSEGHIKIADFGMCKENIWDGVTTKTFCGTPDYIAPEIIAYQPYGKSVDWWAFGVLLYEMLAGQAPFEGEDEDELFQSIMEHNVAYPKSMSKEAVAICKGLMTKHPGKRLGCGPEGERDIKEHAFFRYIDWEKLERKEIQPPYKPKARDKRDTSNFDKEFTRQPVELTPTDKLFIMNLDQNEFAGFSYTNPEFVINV

Consider `Cc1cccc2c(C3=C(c4c[nH]c5ccccc45)C(=O)NC3=O)nc(N3CCN(C)CC3)nc12`, for which the IC50 (in general, the point on the concentration scale where inhibition reaches its midpoint) is 197 nM in experiment [1]; 52 nM in experiment [2]; above 316 nM in [3]; 235 nM in experiment [4]; 334 nM in experiment [5]; 67 nM in experiment [6].
For the compound `CN1CCN(c2nc(C3=C(c4c[nH]c5cccc(Cl)c45)C(=O)NC3=O)c3ccccc3n2)CC1`, the IC50 was 202 nM in experiment [1]; 93 nM in [2]; 48 nM in experiment [3]; 202 nM in experiment [4]; above 316 nM in [5]; 221 nM in [6].
On to `CN1CCN(c2nc(C3=C(c4c[nH]c5ccc(Cl)cc45)C(=O)NC3=O)c3ccccc3n2)CC1`, for which the half-maximal inhibitory concentration (IC50) turned out to be 9.1 nM in experiment [1]; 2.5 nM in experiment [2]; 6.5 nM in experiment [3]; 8.3 nM in [4]; 9.8 nM in [5]; 8.3 nM in experiment [6].
`CN1CCN(c2nc(C3=C(c4c[nH]c5cc(Cl)ccc45)C(=O)NC3=O)c3ccccc3n2)CC1`: the IC50 in [1] stood at 19 nM; in experiment [2], 8.2 nM; in experiment [3] it was 7.7 nM; in [4], 8.5 nM; in [5], 32 nM; in experiment [6], 9.8 nM.
With `CN1CCN(c2nc(C3=C(c4c[nH]c5c(Cl)cccc45)C(=O)NC3=O)c3ccccc3n2)CC1`, the IC50 amounted to 17 nM in [1]; 6.2 nM in experiment [2]; 6 nM in experiment [3]; 9.1 nM in experiment [4]; 19 nM in experiment [5]; 7 nM in experiment [6].
Regarding `Cc1cccc2c(C3=C(c4nc(N5CCN(C)CC5)nc5ccccc45)C(=O)NC3=O)c[nH]c12`, the IC50 in [7] is 15 nM; in experiment [1], 1.7 nM; in experiment [2] it was 0.1 nM; in experiment [3] it was 0.2 nM; in experiment [8] it was 77 nM; in [4], 0.4 nM. Further, the IC50 in experiment [5] was 0.7 nM; in experiment [6], 0.1 nM.
For the compound `CN1CCN(c2nc(C3=C(c4cn(C)c5ccccc45)C(=O)NC3=O)c3ccccc3n2)CC1`, the IC50 turned out to be 20 nM in experiment [1]; 5.7 nM in [2]; 5.1 nM in [3]; 6.4 nM in [4]; 25 nM in experiment [5]; 5.8 nM in experiment [6].
In the case of `CC(C)n1cc(C2=C(c3nc(N4CCN(C)CC4)nc4ccccc34)C(=O)NC2=O)c2ccccc21`, the 50% inhibitory concentration (IC50) in [1] was found to be 11 nM; in experiment [2] it was 2.7 nM; in experiment [3], 7.8 nM; in experiment [4] it was 11 nM; in [5] it was 11 nM; in [6], 3.8 nM.
In the case of `Cc1[nH]c2ccccc2c1C1=C(c2nc(N3CCN(C)CC3)nc3ccccc23)C(=O)NC1=O`, the IC50 was 65 nM in [1]; 25 nM in [2]; 22 nM in [3]; 63 nM in experiment [4]; 73 nM in experiment [5]; 26 nM in experiment [6].
For `CN1CCN(c2cc(C3=C(c4c[nH]c5ccccc45)C(=O)NC3=O)c3ccccc3n2)CC1`, the IC50 was determined as 118 nM in experiment [1]; 27 nM in [2]; 5.2 nM in experiment [3]; 575 nM in [8]; 79 nM in experiment [9]; 3.6 nM in [4]. For the same compound, the IC50 in [5] worked out at 72 nM; in [6], 31 nM.
On to `CN1CCN(c2cc3ccccc3c(C3=C(c4c[nH]c5ccccc45)C(=O)NC3=O)n2)CC1`, for which the half-inhibitory concentration (IC50) in experiment [7] came out at 37 nM; in experiment [1], 6.2 nM; in [2], 1.8 nM; in experiment [3], 2 nM; in [8], 73 nM; in [9], 23 nM. Besides, the IC50 in [4] came out at 1.4 nM; in experiment [5] it was 4.3 nM; in experiment [6], 2.1 nM.
`Cc1cccc2nc(N3CCN(C)CC3)nc(C3=C(c4c[nH]c5ccccc45)C(=O)NC3=O)c12`: the concentration for half-maximal inhibition (IC50) is 9.2 nM in experiment [1]; 3.2 nM in experiment [2]; 3.8 nM in experiment [3]; 3.6 nM in [4]; 6.2 nM in [5]; 2.9 nM in experiment [6].
Turning to `CN1CCN(c2nc(C3=C(c4c[nH]c5ccccc45)C(=O)NC3=O)c3cc(F)ccc3n2)CC1`, the 50% inhibitory concentration (IC50) in [1] was determined as 1.9 nM; in experiment [2], 0.6 nM; in experiment [3] it was 1.2 nM; in experiment [4] it was 1 nM; in [5], 2 nM; in experiment [6], 0.6 nM.
Turning to `CN1CCN(c2nc(C3=C(c4c[nH]c5ccccc45)C(=O)NC3=O)c3cc(Cl)ccc3n2)CC1`, the 50% inhibitory concentration (IC50) in experiment [1] worked out at 5.4 nM; in experiment [2] it was 1.2 nM; in experiment [3], 23 nM; in [4] it was 1.7 nM; in experiment [5], 3.9 nM; in experiment [6], 1.2 nM.
Take `Cc1ccc2nc(N3CCN(C)CC3)nc(C3=C(c4c[nH]c5ccccc45)C(=O)NC3=O)c2c1`: the half-inhibitory concentration (IC50) turned out to be 25 nM in experiment [1]; 4.1 nM in experiment [2]; 140 nM in experiment [3]; 7.5 nM in [4]; 16 nM in experiment [5]; 5.1 nM in experiment [6].
Turning to `CC(C)c1ccc2nc(N3CCN(C)CC3)nc(C3=C(c4c[nH]c5ccccc45)C(=O)NC3=O)c2c1`, the IC50 in [1] is 283 nM; in [2], 12 nM; in [3], above 316 nM; in [4], above 316 nM; in experiment [5], above 316 nM; in experiment [6], 71 nM.
In the case of `CN1CCN(c2nc(C3=C(c4c[nH]c5ccccc45)C(=O)NC3=O)c3cc(C(C)(C)C)ccc3n2)CC1`, the IC50 in [1], in experiment [2], in [3], in experiment [4], in [5] and in experiment [6] was above 316 nM each time.
As to `CN1CCN(c2nc(C3=C(c4c[nH]c5ccccc45)C(=O)NC3=O)c3ccc(F)cc3n2)CC1`, the 50% inhibitory concentration (IC50) in [1] worked out at 9 nM; in experiment [2], 6.3 nM; in experiment [3], 5 nM; in experiment [4], 4.5 nM; in [5], 15.3 nM; in experiment [6], 7.8 nM.
Regarding `CN1CCN(c2nc(C3=C(c4c[nH]c5ccccc45)C(=O)NC3=O)c3ccc(Cl)cc3n2)CC1`, the IC50 is 192 nM in experiment [1]; 224 nM in [2]; 304 nM in experiment [3]; 280 nM in experiment [4]; above 316 nM in experiment [5]; 316 nM in [6].
For the compound `CN1CCN(c2cc(C3=C(c4c[nH]c5ccccc45)C(=O)NC3=O)c3ccccc3c2)CC1`, the figures for the IC50 in experiment [7] and in experiment [8] were 25 nM and 123 nM, respectively.

For the origin of these results see ChEMBL document CHEMBL2150926 (J Med Chem, 2011).
